Test results from article PMC8160025 (Nanomedicine : nanotechnology, biology, and medicine, 2020).

How the values were obtained:
[1] = Spatial distribution of vismodegib in brain sections by IR-MALDESI; assay type: in vivo, mouse; settings: 4 h after IP injection
serum protein = assay: Unbound vismodegib over time after incubation in FBS; assay type: in vitro ADME, bovine; settings: 30 min incubation
[2] = Bone toxicity: femur length by CT scan and direct measurement; assay type: in vivo, mouse; settings: 4 daily doses of 100 mg/kg IP from P10
phosphorylated RB (pRB) = assay: Pharmacodynamics: pRB+ / PCNA proliferation markers in G-Smo medulloblastoma; assay type: in vivo, mouse; settings: for suppression of pRB+ cell fraction in tumors: 24 h
[3] = tested on: SHH-driven medulloblastoma; assay: Survival; assay type: in vivo, mouse; settings: 100 mg/kg IP or orally, or 50 mg/kg IP
[4] = 4 h
[5] = cited from earlier work
[6] = children; cited from earlier work
[7] = Pharmacokinetics by LC-MS in medulloblastoma-bearing G-Smo mice; settings: mouse, in vivo, ip, 100 mg/kg
albumin = settings: 4 h post administration, SPE

## CS(=O)(=O)c1ccc(C(=O)Nc2ccc(Cl)c(-c3ccccn3)c2)c(Cl)c1 [vismodegib]
[1]
  distribution of vismodegib in tumor and forebrain: evenly distributed
Serum protein
  unbound fraction of total vismodegib: marginal
[2]
  femur length: reduced femur length
Phosphorylated RB (pRB); 50 mg/kg IP
  suppression of pRB: sufficient to suppress pRB
Phosphorylated RB (pRB); single 100 mg/kg IP
  suppression of pRB+ cell fraction in tumors: similarly suppressed pRB
Phosphorylated RB (pRB); single 100 mg/kg oral
  suppression of pRB+ cell fraction in tumors: less suppression
[3]
  event free survival (EFS): failed to extend the EFS
[4]; 100 mg/kg, systemic (IP)
  vismodegib level in serum: comparable levels to POx-vismo
[4]; oral gavage
  vismodegib concentrations in blood, tumor and forebrain compared to POx-vismo: significantly lower
[5]
  oral bioavailability: 31.8%
[6]
  drug levels in the CSF as % of the concentration of unbound vismodegib: 26-78%
  drug levels in the CSF as % of total plasma vismodegib: 0.26%
[7]
  Kp: 0.439
albumin
  drug albumin-bound in serum: 90%
  vismodegib unbound in serum: 9%
